Assay results reported in patent US20250122155A1, “NOVEL INDOLE DERIVATIVE, PHARMACEUTICAL COMPOSITION COMPRISING SAME, AND USE THEREOF” (MITOIMMUNE THERAPEUTICS INC., priority 2021, published 2025).

System: H9C2 cells
Assay: Protective effect on heart cells against t-BHP (LDH release)
Assay type: cell-based
Conditions: H9C2, t-BHP 400 μM, 2 hours, read-out: EC50 (μM), Cell Protection Effect against t-BHP in Heart Cells
Protocol: In order to identify the protective effect with regard to heart cells, H9C2 cells were divided into 96-well plates by 1.5×10^4, and cultured for 24 hours. The respective wells were treated with compounds of the examples 3× serial diluted to final concentrations of 30, 10, 3, 1, 0.3, 0.1, 0.03 and 0.01 μM, then incubated for 15 to 20 minutes. After treating with t-BHP with a final concentration of 400 μM, incubation was performed for 2 hours. To confirm the protective effect of each compound, a Cytotoxicity LDH assay kit [Dojindo; CK12] was used to measure the degree of extracellular secretion of LDH. After 2-hour treatment of the cells with t-BHP was completed, 100 μL each of the supernatant in which the cells were placed was collected and moved to a new 96-well plate. 100 μL/well of the assay buffer included in the kit (same amount as the sample) was added, followed by wrapping with foil and reacting for 30 minutes at room temperature. Observing the change of color in the sample, 50 μL/well of stop solution was added, then an iD3 spectrometer was used to measure absorbance at 490 nm and calculate the EC50 values. The EC50 of the compounds of the examples is preferably no more than 1.0 μM, and more preferably no more than 0.3 μM.

**Q.** COCCOCc1cc(NC2COC2)c2[nH]c(-c3ccccc3)cc2c1 [Example 7, 5(2-methoxyethoxymethyl)-N-(oxetane-3-yl)-2-phenyl-1H-indol-7-amine] was tested. Which EC50 did it give?
**A.** ≤ 0.3 µM

**Q.** Which EC50 does the source give for COCCOCCOCc1cc(NC2CCOCC2)c2[nH]c(-c3ccccc3)cc2c1 [Example 40, 5-[2-(2-methoxyethoxy)ethoxymethyl]-2-phenyl-N-tetrahydropyran-4-yl-1H-indol-7-amine] here?
**A.** 0.3 to 1 µM

**Q.** With CCC(C)Nc1cc(COCCOC)cc2cc(-c3ccccc3)[nH]c12 (centres unmarked) [Example 20, 5-(2(methoxyethoxymethyl)-2-phenyl)-N-sec-butyl-1H-indol-7-amine] as the molecule, how does the EC50 read?
**A.** ≤ 0.3 µM

**Q.** How did the EC50 turn out when CCOC(=O)N1CCC(Nc2cc(COCCOC)cc3cc(-c4ccccc4)[nH]c23)CC1 [Example 44, Ethyl 4-[[5-(2-methoxyethoxymethyl)-2-phenyl-1H-indol-7-yl]amino]piperidine-1-carboxylate] was run?
**A.** ≤ 0.3 µM

**Q.** COCCOCc1cc(NC2CCOCC2)c2[nH]c(-c3ccc(C#CC(C)(C)O)cc3)cc2c1 [Example 59, 4-(4-(5-((2-methoxyethoxy)methyl)-7-((tetrahydro-2H-pyran-4-yl)amino)-1H-indol-2-yl)phenyl)-2-methylbut3-yn-2-ol] was tested. Which EC50 did it give?
**A.** 0.3 to 1 µM

**Q.** For COCCOCc1cc(N(C2CCCC2)C2CCCC2)c2[nH]c(-c3ccccc3)cc2c1 [Example 3, N,N-dicyclopentyl-5-(2-methoxyethoxymethyl)-2-phenyl-1H-indol-7-amine], which EC50 is on record?
**A.** ≤ 0.3 µM

**Q.** How did the EC50 turn out when CCCCNc1cc(COCCOC)cc2cc(-c3ccccc3)[nH]c12 [Example 17, N-butyl-5-(2-methoxyethoxymethyl)-2-phenyl-1H-indol-7-amine] was run?
**A.** ≤ 0.3 µM

**Q.** With COCCOCCc1cc(NC2CCOCC2)c2[nH]c(-c3ccccc3)cc2c1 [Example 67, 5-(2-(2-methoxyethoxy)ethyl)-2-phenyl-N-(tetrahydro-2H-pyran-4-yl)-1H-indole-7-amine] as the molecule, how does the EC50 read?
**A.** ≤ 0.3 µM

**Q.** With COCCOCc1cc(N2CCOCC2)c2[nH]c(-c3ccccc3)cc2c1 [Example 5, 4-[5-(2-methoxyethoxymethyl)-2-phenyl-1H-indol-7-yl]morpholine] as the molecule, how does the EC50 read?
**A.** > 1 µM

**Q.** COCCOCc1cc(NC(C)C)c2[nH]c(-c3ccccc3)cc2c1 [Example 27, N-isopropyl-5-(2-methoxyethoxymethyl)-2-phenyl-1H-indol-7-amine] was tested. Which EC50 did it give?
**A.** ≤ 0.3 µM

**Q.** How did the EC50 turn out when COCCOCc1cc(NC2CCCC2)c2[nH]c(-c3ccc(Br)cc3)cc2c1 [Example 54, 2-(4-bromophenyl)-N-cyclopentyl-5-((2-methoxyethoxy)methyl)-1H-indol-7-amine] was run?
**A.** ≤ 0.3 µM

**Q.** For COCCOCc1cc(NC(C)C(F)(F)F)c2[nH]c(-c3ccccc3)cc2c1 (centres unmarked) [Example 25, 5-(2-methoxyethoxymethyl)-2-phenyl-N-(2,2,2-trifluoro-1-methyl-ethyl)-1H-indol-7-amine], which EC50 is on record?
**A.** ≤ 0.3 µM

**Q.** Which EC50 does the source give for COCCOCc1cc(NC2CCN(C(=O)OC(C)(C)C)CC2)c2[nH]c(-c3ccccc3)cc2c1 [Example 29, tert-butyl 4-[[5-(2-methoxyethoxymethyl)-2-phenyl-1H-indol-7-yl]amino]piperidine-1-carboxylate] here?
**A.** ≤ 0.3 µM

**Q.** Which EC50 does the source give for CC(C)OCCOCc1cc(NC2CCCC2)c2[nH]c(-c3ccccc3)cc2c1 [Example 37, N-cyclopentyl-5-(2-isopropoxyethoxymethyl)-2-phenyl-1H-indol-7-amine] here?
**A.** ≤ 0.3 µM

**Q.** Which EC50 does the source give for COCCOCc1cc(/N=C(/C)C(F)(F)F)c2[nH]c(-c3ccccc3)cc2c1 [Example 24, (E,Z)-1,1,1-trifluoro-N-[5-(2-methoxyethoxymethyl)-2-phenyl-1H-indol-7-yl]propane-2-imine] here?
**A.** ≤ 0.3 µM

**Q.** With CC(C)OCCOCc1cc(NC2CCOCC2)c2[nH]c(-c3ccccc3)cc2c1 [Example 38, 5-(2-isopropoxyethoxymethyl)-2-phenyl-Ntetrahydropyran-4-yl-1H-indol-7-amine] as the molecule, how does the EC50 read?
**A.** ≤ 0.3 µM

**Q.** How did the EC50 turn out when COCCOCc1cc(NC2CCC2)c2[nH]c(-c3ccccc3)cc2c1 [Example 8, N-cyclobutyl-5-(2-methoxyethoxymethyl)-2-phenyl-1H-indol-7-amine] was run?
**A.** ≤ 0.3 µM
